Values joined by “and” are separate entries in the source; they are usually repeats but may differ in a detail not shown here. Equal values may be shown once.
B1: Saccharomonospora sp. CNQ-490 Tar13 (tryptophan 2,3-dioxygenase), wild type, SEQ ID NO: 1 (expressed SEQ ID NO: 2) (Saccharomonospora piscinae) (protein)
chain: MTERTATRTEPAYGEILRLDELLELACVNDEADRALFLSAHQACEIWFAVVLRHLEDVTDALSLDDGATAAELLERLPRIITVIIEHFEVLGTLKPEAFDRIRADLGSSSGFQSVQYREIEYLCGARDTRFLNTAGFRDRDRRRLRERLAKRSLSNVFLEYRGRAGDRDACRISDALHEFDDSVRALRLRHAGIAELFLGSIPGTAGTAGAAYLRRSASRTLFPELFDRRASGTGG

What was measured:
Tar14 = Tar14 in vitro halogenation assay with substrate analogues; type: biochemical, Saccharomonospora sp. CNQ-490; conditions: substrate 0.25 mM, Tar14 5 μM, 30° C., 4 h; for Enzyme assays, % conversion, Tar14, Br^−: KBr 100 mM; for Enzyme assays, % conversion, Tar14, Cl^−: NaCl 100 mM
Procedure: Tar14. Tar14 reaction mixture of total volume 100 μL in 1.5 mL Eppendorf tube was composed of the following components:
Buffer (10 mM Tris, 10% glycerol, pH 7.6): up to 100 μL

Tar16 = assay: Coupled Tar13/Tar16 assay (Tar16 substrate generated in situ by Tar13); type: biochemical, Saccharomonospora sp. CNQ-490; conditions: for Enzyme assays, % conversion, Tar16: substrates generated in situ by Tar13, Tar16 10 μM, overnight at 30° C.
Procedure: Coupled Tar13 Tar]6. The reaction mixture of total volume 100 μL in 1.5 mL Eppendorf tube was composed of the following components:
Buffer: up to 50 μL (50 mM Tris, 500 mM NaCl 10% glycerol, pH 8.0
Substrate (for Tar13 enzyme): 0.25 μM
(§1) In a separate Eppendorf tube premix:
Buffer: up to […] (50 mM Tris, 500 mM NaCl 10% glycerol, pH 8.0)
Add substrate solution to the enzyme mixture to start reaction.
No difference in conversion was observed when Tar16 was added into the assay mixture either together with Tar13, or after 2 h of incubation at 30° C., or after overnight incubation at 30° C., followed by another 4 h of incubation after addition of Tar16. Therefore, for convenience, all components were mixed at the same time point, the reactions were incubated at 30° C. overnight, after which the assays were quenched by addition of equal volume of HPLC grade methanol.

Tar13 = Tar13 in vitro assay with substrate analogues; type: biochemical, Saccharomonospora sp. CNQ-490; conditions: for Enzyme assays, % conversion, Tar13: substrate 0.25 mM, Tar13 20 μM, overnight at 30° C.
Procedure: Tar13. Upon testing different reaction compositions (buffers, concentration of ascorbic acids and hemin, pH), the following conditions were found as optimal:
(§2) Buffer: up to 50 μL (50 mM Tris, 500 mM NaCl 10% glycerol, pH 8.0)
as §1
Add substrate solution to the enzyme mixture to start reaction
When Tar13 was directly added to the enzyme reaction, immediate protein precipitation occurred. The same was observed if the enzyme was not pre-mixed with hemin and ascorbic acid. Full substrate conversion was achieved after overnight incubation at 30° C. in 1.5 mL Eppendorf tube with shaking. The reactions were quenched by addition of equal volume of HPLC grade methanol.

[1] = test system: S. coelicolor M1146-tarM1Δtar14; assay: Feeding/chemical complementation experiment, incorporation into taromycin; type: cell-based, Streptomyces coelicolor; conditions: for Feeding, % incorporation, A1 + A13 domain: incorporation at residue-1 and residue-13; for Feeding, % incorporation, A1 + A13 domain / Feeding, % incorporation, A1 domain: analogue fed at 2 mM, judged by comparison to taromycin yields by S. coelicolor M1146-tarM1; for Feeding, % incorporation, A1 domain: incorporation only at residue-1
Procedure: For taromycin production, seed culture in TSBY medium was inoculated with corresponding S. coelicolor spore suspension (collected from fresh SFM plates) and was cultured for 36-48 h till a dense creamy consistency was reached. Kanamycin at 10 μg mL^−1 final concentration was added to the seed cultures of S. coelicolor M1146-pCAP01-tarM1 and S. coelicolor M1146-pCAP01-tarM1Δtar14. Inocula of seed culture (5%, v/v) were used for fermentation in MP medium (1% glucose, 1% soluble starch, 0.4% peptone, 0.3% yeast extract, 0.3% soytone, 0.2% meat extract, 0.2% CaCO3, and 0.5% NaCl, pH 7.2). Fermentation was carried out at 30° C. and 220 rpm in a rotary incubator for 6 days. A maximum of 40 mL of production medium was added into 250 mL flask with metal springs.
S. coelicolor M1146-pCAP01-tarM1Δtar14 cultures were grown as described in Section 3 for taromycin production. After 18 and 36 h of cultivation, tryptophan analogues in the form of water suspension were added to the production cultures to a final concentration 2 mM. The cultures were further incubated for 5 days before extraction and further analysis by LC-HRMS^n. All experiments were repeated independently twice with three replicates for each compound. In parallel, cultures of S. coelicolor M1146-pCAP01-tarM1 and S. coelicolor M1146-pCAP01-tarM1Δtar14 were grown as controls.
To analyze production of taromycins and analogues, solid phase extraction of the culture supernatants was performed with Amberlite XAD-16 resin (SIGMA). For analytical purposes around 1 g of washed and equilibrated resin was added to 20 mL of supernatant followed by shaking for 30-60 min. Samples were then spun down and decanted. The resin was washed twice with water (15 mL), before elution with methanol (5 mL). The methanol extracts from the resin were used for LCMS analysis without additional concentration step.

[2] = test system: Tar14, Tar13, and Tar13/16; assay: In vitro assays with Tar14, Tar13, and Tar13/16 (FIG. 20 summary); type: biochemical, Saccharomonospora sp. CNQ-490; conditions: Tar14, Tar13, Tar13/16
[3] = substrate: N[C@@H](Cc1c[nH]c2cc(Cl)ccc12)C(=O)O; assay: Kinetic characterization of Tar13-catalyzed oxidation of L-6-Cl-tryptophan; type: biochemical, Saccharomonospora sp. CNQ-490; conditions: other: Tar13, L-6-Cl-Trp, 30° C., pH 8.0
Procedure: To determine kinetic parameters for Tar13-catalyzed oxidation of L-6-Cl-tryptophan, the following reaction conditions were used:
as §2, §1
The enzyme mixture was added to the substrate solution to start the reactions. The reactions were incubated at 30° C. for 5, 10, 15, 30 min, after which the assays were quenched by addition of equal volume of HPLC grade methanol and frozen at −70° C. till further analysis by HPLC. All assays were performed in triplicates for each substrate concentration and every time point. In parallel, for each time point and substrate concentration, assays with no added enzyme were used as controls. Prior HPLC analysis (method 5), L-tryptophan was added to the quenched reaction mixtures as an internal standard for quantification.
Product formation was quantitated by calculating decrease of the area of the remaining substrate in comparison to the substrate peak area in the control with no enzyme added, and the ratio of peak areas to internal standard were fitted into a calibration curve to determine product concentrations.

Molecule	Enzyme assays, % conversion, Tar14, Br^− (Tar14) [%]	Enzyme assays, % conversion, Tar14, Cl^− (Tar14) [%]	Enzyme assays, % conversion, Tar16 (Tar16) [%]	Enzyme assays, % conversion, Tar13 (Tar13) [%]	Feeding, % incorporation, A1 domain [1] [%]	also measured
Nc1cc(Cl)ccc1C(=O)CC(N)C(=O)O [Compound 1, L-4-chlorokynurenine]	5	<1				
Nc1ccccc1C(=O)C[C@H](N)C(=O)O [Compound 5, L-kynurenine]	30	30				
N[C@@H](Cc1c[nH]c2cc(Cl)ccc12)C(=O)O [Compound 7, L-6-Chlorotryptophan]	<5		100	100		Conversion in coupled Tar13/Tar16 reaction (Tar16; Tar16 added to Tar13 reaction): full conversion; Conversion/activity as substrate for Tar13 (Tar13): complete conversion; Chemical complementation of taromycin production ([1]; S. coelicolor M1146-tarM1Δtar14 mutant fed with compound): restored taromycin production; Feeding, % incorporation, A1 + A13 domain [1]: 100%
N[C@@H](Cc1c[nH]c2ccc(Br)cc12)C(=O)O [Compound 8, L-5-Bromotryptophan]		<1	100	<1	50	
N[C@@H](Cc1c[nH]c2cc(Br)ccc12)C(=O)O [Compound 9, L-6-bromotryptophan]	<1		100	100		Feeding, % incorporation, A1 + A13 domain [1]: 20%
N[C@H](Cc1c[nH]c2ccccc12)C(=O)O [Compound 11, D-tryptophan]	20	15	40	<1		
N[C@@H](Cc1c[nH]c2cccc(Br)c12)C(=O)O [Compound 12, L-4-bromotryptophan]	<5	<1				
N[C@@H](Cc1c[nH]c2ccc(Cl)cc12)C(=O)O [Compound 14, D/L-5-chlorotryptophan]	<1	<1	100	<1	30	
N[C@@H](Cc1c[nH]c2cccc(F)c12)C(=O)O [Compound 15, D/L-4-fluorotryptophan]	15	10			15	Feeding, % incorporation, A1 + A13 domain [1]: 15%
N[C@@H](Cc1c[nH]c2cc(F)ccc12)C(=O)O [Compound 16, D/L-6-fluorotryptophan]	25	25	100	5	<5	Feeding, % incorporation, A1 + A13 domain [1]: 90%
Cc1cccc2[nH]cc(C[C@H](N)C(=O)O)c12 [Compound 17, D/L-4-methyltryptophan]	75	100			40	
Cc1ccc2[nH]cc(C[C@H](N)C(=O)O)c2c1 [Compound 18, D/L-5-methyltryptophan]	25	50	70	<1	35	
NC(Cc1c[nH]c2ccc([N+](=O)[O-])cc12)C(=O)O [Compound 21, D/L-5-NO2-Trp]					60	
NCCc1c[nH]c2ccc(O)cc12 [Compound 22, serotonine]						Conversion by any of the enzymes [2]: not converted by any of the enzymes
N[C@@H](Cc1ccc(O)cc1)C(=O)O [Compound 23, L-tyrosine]						Conversion by any of the enzymes [2]: not converted by any of the enzymes
N[C@@H](Cc1ccccc1)C(=O)O [Compound 24, L-phenylalanine]						Conversion by any of the enzymes [2]: not converted by any of the enzymes
L-5-CH3O-Trp [Compound 19]	<5	<1	100	<1	15	
L-5-OH-Trp [Compound 20]	<1	5			10	
L-7-Br-Trp [Compound 13]	100	100			<5	
B1						Vmax [3]: 0.061 ± 0.006 µM/s; kcat [3]: 0.03 s⁻¹ and 0.031 ± 0.003 s⁻¹
